Laboratory results published in PubChem BioAssay (NCI).
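Cells were grown in 96-well plates and exposed to each compound for 48 hours at five concentrations; endpoints were interpolated linearly between bracketing concentrations, or set to the highest concentration if not reached. TGI is the concentration that stops growth completely.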

Key:
Assay in all cases: DTP human tumour cell line panel, 48 h
786-0 renal = system: 786-0 renal
A549 NSCLC = system: A549 NSCLC
ACHN renal = system: ACHN renal
BT-549 breast = system: BT-549 breast
CAKI-1 renal = system: CAKI-1 renal
CCRF-CEM leukemia = system: CCRF-CEM leukemia
COLO 205 colon = system: COLO 205 colon
DU-145 prostate = system: DU-145 prostate
EKVX NSCLC = system: EKVX NSCLC
HCC-2998 colon = system: HCC-2998 colon
HCT-116 colon = system: HCT-116 colon
HCT-15 colon = system: HCT-15 colon
HL-60(TB) leukemia = system: HL-60(TB) leukemia
HOP-62 NSCLC = system: HOP-62 NSCLC
HOP-92 NSCLC = system: HOP-92 NSCLC
HS 578T breast = system: HS 578T breast
HT29 colon = system: HT29 colon
IGROV1 ovarian = system: IGROV1 ovarian
KM12 colon = system: KM12 colon
LOX IMVI melanoma = system: LOX IMVI melanoma
M14 melanoma = system: M14 melanoma
MALME-3M melanoma = system: MALME-3M melanoma
MCF7 breast = system: MCF7 breast
MDA-MB-231 breast = system: MDA-MB-231 breast
MDA-MB-435 = system: MDA-MB-435
MDA-N = system: MDA-N
MOLT-4 leukemia = system: MOLT-4 leukemia
NCI-H226 lung = system: NCI-H226 lung
NCI-H23 lung = system: NCI-H23 lung
NCI-H460 lung = system: NCI-H460 lung
NCI-H522 lung = system: NCI-H522 lung
NCI/ADR-RES ovarian = system: NCI/ADR-RES ovarian
OVCAR-3 ovarian = system: OVCAR-3 ovarian
OVCAR-4 ovarian = system: OVCAR-4 ovarian
OVCAR-5 ovarian = system: OVCAR-5 ovarian
OVCAR-8 ovarian = system: OVCAR-8 ovarian
PC-3 prostate = system: PC-3 prostate
RPMI-8226 leukemia = system: RPMI-8226 leukemia
SF-268 CNS = system: SF-268 CNS
SF-295 CNS = system: SF-295 CNS
SF-539 CNS = system: SF-539 CNS
SK-MEL-2 melanoma = system: SK-MEL-2 melanoma
SK-MEL-28 melanoma = system: SK-MEL-28 melanoma
SK-MEL-5 melanoma = system: SK-MEL-5 melanoma
SK-OV-3 ovarian = system: SK-OV-3 ovarian
SN12C renal = system: SN12C renal
SNB-19 CNS = system: SNB-19 CNS
SNB-75 CNS = system: SNB-75 CNS
SR leukemia = system: SR leukemia
SW-620 colon = system: SW-620 colon
T-47D breast = system: T-47D breast
TK-10 renal = system: TK-10 renal
U251 CNS = system: U251 CNS
UACC-257 melanoma = system: UACC-257 melanoma
UACC-62 melanoma = system: UACC-62 melanoma
UO-31 renal = system: UO-31 renal
A498 renal = system: A498 renal
K-562 leukemia = system: K-562 leukemia
RXF 393 renal = system: RXF 393 renal

Question: How did the TGI (786-0 renal) turn out when `Cc1cnc2sn(-c3ccc(Br)cc3)c(=O)c2c1` was run?
Answer: The TGI was > 100 µM.

Question: What about the TGI (A549 NSCLC) of the same compound?
Answer: Its TGI is > 100 µM.

Question: What about the TGI (ACHN renal) of the same compound?
Answer: Its TGI is > 100 µM.

Question: And the TGI (BT-549 breast)?
Answer: Its TGI is > 100 µM.

Question: And the TGI (CAKI-1 renal)?
Answer: The TGI was 30.7 µM.

Question: And the TGI (CCRF-CEM leukemia)?
Answer: Its TGI is 69.7 µM.

Question: What about the TGI (COLO 205 colon) of the same compound?
Answer: The TGI was 49.3 µM.

Question: What about the TGI (DU-145 prostate) of the same compound?
Answer: The TGI was > 100 µM.

Question: What about the TGI (EKVX NSCLC) of the same compound?
Answer: The TGI was > 100 µM.

Question: And the TGI (HCC-2998 colon)?
Answer: The TGI was > 100 µM.

Question: And the TGI (HCT-116 colon)?
Answer: Its TGI is > 100 µM.

Question: And the TGI (HCT-15 colon)?
Answer: Its TGI is > 100 µM.

Question: What about the TGI (HL-60(TB) leukemia) of the same compound?
Answer: Its TGI is 49.7 µM.

Question: And the TGI (HOP-62 NSCLC)?
Answer: Its TGI is 81.5 µM.

Question: What about the TGI (HOP-92 NSCLC) of the same compound?
Answer: The TGI was 68.8 µM.

Question: What about the TGI (HS 578T breast) of the same compound?
Answer: Its TGI is 88.1 µM.

Question: And the TGI (HT29 colon)?
Answer: Its TGI is 75 µM.

Question: And the TGI (IGROV1 ovarian)?
Answer: Its TGI is > 100 µM.

Question: And the TGI (KM12 colon)?
Answer: The TGI was > 100 µM.

Question: What about the TGI (LOX IMVI melanoma) of the same compound?
Answer: Its TGI is > 100 µM.

Question: What about the TGI (M14 melanoma) of the same compound?
Answer: The TGI was > 100 µM.

Question: What about the TGI (MALME-3M melanoma) of the same compound?
Answer: Its TGI is 43.6 µM.

Question: And the TGI (MCF7 breast)?
Answer: Its TGI is > 100 µM.

Question: And the TGI (MDA-MB-231 breast)?
Answer: The TGI was > 100 µM.

Question: And the TGI (MDA-MB-435)?
Answer: The TGI was > 100 µM.

Question: What about the TGI (MDA-N) of the same compound?
Answer: Its TGI is > 100 µM.

Question: And the TGI (MOLT-4 leukemia)?
Answer: The TGI was > 100 µM.

Question: What about the TGI (NCI-H226 lung) of the same compound?
Answer: Its TGI is > 100 µM.

Question: And the TGI (NCI-H23 lung)?
Answer: The TGI was > 100 µM.

Question: And the TGI (NCI-H460 lung)?
Answer: The TGI was > 100 µM.

Question: What about the TGI (NCI-H522 lung) of the same compound?
Answer: Its TGI is 16.9 µM.

Question: And the TGI (NCI/ADR-RES ovarian)?
Answer: Its TGI is > 100 µM.

Question: And the TGI (OVCAR-3 ovarian)?
Answer: Its TGI is 62.7 µM.

Question: What about the TGI (OVCAR-4 ovarian) of the same compound?
Answer: Its TGI is 79.3 µM.

Question: And the TGI (OVCAR-5 ovarian)?
Answer: The TGI was > 100 µM.

Question: And the TGI (OVCAR-8 ovarian)?
Answer: The TGI was > 100 µM.

Question: And the TGI (PC-3 prostate)?
Answer: Its TGI is > 100 µM.

Question: What about the TGI (RPMI-8226 leukemia) of the same compound?
Answer: The TGI was > 100 µM.

Question: What about the TGI (SF-268 CNS) of the same compound?
Answer: The TGI was > 100 µM.

Question: And the TGI (SF-295 CNS)?
Answer: Its TGI is 97.8 µM.

Question: What about the TGI (SF-539 CNS) of the same compound?
Answer: The TGI was > 100 µM.

Question: And the TGI (SK-MEL-2 melanoma)?
Answer: The TGI was > 100 µM.

Question: What about the TGI (SK-MEL-28 melanoma) of the same compound?
Answer: Its TGI is > 100 µM.

Question: And the TGI (SK-MEL-5 melanoma)?
Answer: Its TGI is > 100 µM.

Question: And the TGI (SK-OV-3 ovarian)?
Answer: Its TGI is > 100 µM.

Question: What about the TGI (SN12C renal) of the same compound?
Answer: Its TGI is > 100 µM.

Question: And the TGI (SNB-19 CNS)?
Answer: Its TGI is > 100 µM.

Question: And the TGI (SNB-75 CNS)?
Answer: Its TGI is > 100 µM.

Question: What about the TGI (SR leukemia) of the same compound?
Answer: Its TGI is > 100 µM.

Question: And the TGI (SW-620 colon)?
Answer: Its TGI is 89.6 µM.

Question: And the TGI (T-47D breast)?
Answer: Its TGI is 48.4 µM.

Question: And the TGI (TK-10 renal)?
Answer: The TGI was > 100 µM.

Question: And the TGI (U251 CNS)?
Answer: The TGI was > 100 µM.

Question: And the TGI (UACC-257 melanoma)?
Answer: Its TGI is > 100 µM.

Question: What about the TGI (UACC-62 melanoma) of the same compound?
Answer: Its TGI is > 100 µM.

Question: What about the TGI (UO-31 renal) of the same compound?
Answer: Its TGI is > 100 µM.

Question: What does the source list for `CCOC1CC(C)N(C(=O)c2ccccc2)O1` (centres undefined)?
Answer: TGI (786-0 renal): > 100 µM; TGI (A498 renal): > 100 µM; TGI (A549 NSCLC): > 100 µM; TGI (ACHN renal): > 100 µM; TGI (BT-549 breast): > 100 µM; TGI (CCRF-CEM leukemia): > 100 µM; TGI (DU-145 prostate): > 100 µM; TGI (EKVX NSCLC): > 100 µM; TGI (HCC-2998 colon): > 100 µM; TGI (HCT-116 colon): > 100 µM; TGI (HL-60(TB) leukemia): > 100 µM; TGI (HOP-62 NSCLC): > 100 µM; TGI (HOP-92 NSCLC): > 100 µM; TGI (HS 578T breast): > 100 µM; TGI (HT29 colon): > 100 µM; TGI (IGROV1 ovarian): > 100 µM; TGI (K-562 leukemia): > 100 µM; TGI (KM12 colon): > 100 µM; TGI (M14 melanoma): > 100 µM; TGI (MCF7 breast): > 100 µM; TGI (MDA-MB-231 breast): > 100 µM; TGI (MDA-MB-435): > 100 µM; TGI (MDA-N): > 100 µM; TGI (MOLT-4 leukemia): > 100 µM; TGI (NCI-H226 lung): > 100 µM; TGI (NCI-H23 lung): > 100 µM; TGI (NCI-H460 lung): > 100 µM; TGI (NCI/ADR-RES ovarian): > 100 µM; TGI (OVCAR-3 ovarian): > 100 µM; TGI (OVCAR-5 ovarian): > 100 µM; TGI (OVCAR-8 ovarian): > 100 µM; TGI (PC-3 prostate): > 100 µM; TGI (RXF 393 renal): > 100 µM; TGI (SF-268 CNS): > 100 µM; TGI (SF-295 CNS): > 100 µM; TGI (SF-539 CNS): > 100 µM; TGI (SK-MEL-28 melanoma): > 100 µM; TGI (SK-MEL-5 melanoma): > 100 µM; TGI (SK-OV-3 ovarian): > 100 µM; TGI (SN12C renal): > 100 µM; TGI (SNB-19 CNS): > 100 µM; TGI (SR leukemia): > 100 µM; TGI (SW-620 colon): > 100 µM; TGI (T-47D breast): > 100 µM; TGI (TK-10 renal): > 100 µM; TGI (U251 CNS): > 100 µM; TGI (UACC-62 melanoma): > 100 µM; TGI (UO-31 renal): > 100 µM
